The source of these data is US20030229066A1, “Novel heterocyclic urea derivatives and their use as dopamine D3 receptor ligands” (priority 2001, published 2003).

The target of assay [1] is T1, cloned human alpha-1A adrenergic receptors (α1a) (Homo sapiens, UniProt P35348).
T1 construct: expressed in transfected cells
T1 sequence (P35348 1-466): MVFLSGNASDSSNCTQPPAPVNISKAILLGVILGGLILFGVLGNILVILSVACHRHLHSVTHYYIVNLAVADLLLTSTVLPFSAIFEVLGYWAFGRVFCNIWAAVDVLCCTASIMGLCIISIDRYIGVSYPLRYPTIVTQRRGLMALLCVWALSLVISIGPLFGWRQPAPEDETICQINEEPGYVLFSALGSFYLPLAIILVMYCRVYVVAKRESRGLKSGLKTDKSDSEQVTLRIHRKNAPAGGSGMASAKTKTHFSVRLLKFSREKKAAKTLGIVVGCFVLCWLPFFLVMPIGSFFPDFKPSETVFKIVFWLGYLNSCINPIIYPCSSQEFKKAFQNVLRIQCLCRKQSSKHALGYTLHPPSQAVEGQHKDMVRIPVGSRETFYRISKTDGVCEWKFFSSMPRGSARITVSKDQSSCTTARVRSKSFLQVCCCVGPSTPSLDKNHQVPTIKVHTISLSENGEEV
Kind of assay: [3H]Prazosin binding to cloned human alpha-1A adrenergic receptors expressed in CHO cells. As to conditions: for Ki: Table II, pairs of 6-fluoro and 6-trifluoromethyl benzo[b]thiophenes, read-out: halpha1Ki. From the text:
[^3H]PRAZOSIN BINDING TO CLONED HUMAN ALPHA-1A ADRENERGIC RECEPTORS (α1a) EXPRESSED IN CHINESE HAMSTER OVARY CELLS (CHO)
This in vitro assay is designed as a screen to identify compounds displaying a affinity for the human α1a adrenoceptor subtype expressed in the membrane fragments of CHO cells. The assay-measures the ability of the test compounds to displace [^3H]prazosin from α1a sites.
Therefore, the binding of compounds to α1a adrenergic receptors is believed to be a good measure of a compound's potential to cause orthostatic hypotension and sedation as side effects. Prazosin is a potent antagonist of the human α1a-adrenoceptor subtype, which has been cloned and is expressed in the membrane fragments of CHO cells.
The cloning of the human α1a cDNA was accomplished first by screening a human prostate cDNA library (Clontech), from which a portion of the coding region was obtained. This DNA fragment was then used to screen a human leukocyte genomic library (Clontech), and the rest of the coding sequence was obtained. Later these two fragments were spliced together. The entire coding sequence was then fully sequenced including matching PCR sequence with original genomic coding sequence, thus ensuring splice sites were joined correctly (Schwinn et al., 1995). Once sequenced, the gene was subcloned into the expression vector pcDNA3 (Invitrogen). Plasmid DNA was then used for transfection into CHO cells and G418 resistant clones were isolated. A clone expressing high levels of the hα1a receptor (as determined by mRNA and receptor binding data) was chosen and pharmacologically characterized.
[7-methoxy-^3H]-Prazosin: 1.0 nM (NEN, NET-823) 70-87 Ci/mmol
A: 50 mM Tris HCl; 0.1% ascorbate, pH 7.7 (incubation buffer)
Total Binding=50 μl buffer A+50 μl [^3H]prazosin+100 μl membrane
Nonsp. Bd.=50 μl 10 μM phentolamine+50 μl [^3H]prazosin+100 μl membrane
Test Cpd.=50 μl compound+50 μl [^3H]prazosin+100 μl membrane
Compounds to be evaluated are weighed out to yield a 10 mM stock solution in DMSO in a 24 well polystyrene plate. This is diluted to a 0.5 mM stock in dH2O. Serial dilutions in Buffer A are made from which 50 μl additions to the plate are made in duplicate in order to achieve the final concentrations desired. Typically, one 96 well plate is used to evaluate 11 compounds at 4 concentrations (10^−6-10^−9 M) in duplicate. Total binding and nonspecific binding are determined in quadruplicate. Usually one standard is run with each assay.
[^3H]Prazosin is made up in Buffer A such that when 50 μl are added per well the final concentration is 1.0 nM in a final assay volume of 200 μl. The final concentration should be verified by running a sample in a scintillation counter prior to adding the [^3H]prazosin to the 96 well plate. Note: The radioactivity should be prepared just before the additions are made so that it is not allowed to sit on the bench for very long.
Incubation & Filtration: Once buffer, compounds, [^3H]prazosin and membrane have been added (and mixed), the 96 well plates are incubated for 40 min at 37° C. and spaced 3-5 min apart. At 40 min, the plates are filtered using a Tomtec Automated Cell Harvester. Filtration is immediately followed by washes of ice cold Buffer B (total vol. ˜7 ml).
Analysis of Results: Raw DPM and CPM data are captured on disk and are imported into one of several software packages (Graphpad Prism Ver 2.0, Excel) residing on the LAN. Specific binding is defined as the difference between total binding and the binding in the presence of 10 μM phentolamine. Total binding is less than 10% of the total added ligand. Software using one-site competition curve analysis is employed in the calculation of IC50 and Kj (Cheng-Prusoff equation, 1973). The top and bottom of the non-linear regression are held constant at 0% and 100% inhibition. The percent inhibition at each drug concentration is the mean of duplicate determinations.

Assay [2] addresses T2, cloned human dopamine D3 receptors (Homo sapiens, UniProt P35462).
T2 construct: expressed in transfected cells
Kind of assay: [N-Methyl-3H]Spiroperidol binding to cloned human dopamine D3 receptors. As to conditions: Table III; read-out: d3Ki. An outline of the steps: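 Competition binding on homogenized CHO cells stably expressing human D3, with 0.4 nM [3H]NMSP (final), 37 °C for 30 min, filtration and scintillation counting. Nonspecific binding defined with 3 μM S(-)-eticlopride; typically eight test concentrations, 10^−5–10^−8 M final. Ki by Cheng-Prusoff from one-site competition fits, duplicate means.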

T2 sequence (P35462 whole entry): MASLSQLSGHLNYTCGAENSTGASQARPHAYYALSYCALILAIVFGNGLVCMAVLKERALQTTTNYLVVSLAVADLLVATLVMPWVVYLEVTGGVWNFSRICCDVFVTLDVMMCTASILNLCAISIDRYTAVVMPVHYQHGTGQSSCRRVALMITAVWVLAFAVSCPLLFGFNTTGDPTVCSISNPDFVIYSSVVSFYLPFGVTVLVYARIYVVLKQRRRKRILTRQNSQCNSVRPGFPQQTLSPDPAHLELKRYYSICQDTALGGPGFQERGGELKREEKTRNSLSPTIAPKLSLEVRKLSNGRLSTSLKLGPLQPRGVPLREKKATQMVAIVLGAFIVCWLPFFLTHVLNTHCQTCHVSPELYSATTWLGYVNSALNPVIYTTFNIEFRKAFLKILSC

In the case of `O=C(NCCCCN1CCN(c2csc3cc(F)ccc23)CC1)Nc1ccccc1` [compound 813581], the Ki in assay [1] was found to be 1.5 nM. For `CC(=O)c1ccc(NC(=O)NCCCCN2CCN(c3csc4cc(F)ccc34)CC2)cc1` [compound 814932], the Ki in assay [1] was determined as 2.2 nM. As to `COc1ccc(NC(=O)NCCCCN2CCN(c3csc4cc(F)ccc34)CC2)cc1` [compound 814933], the Ki in assay [1] was 1.8 nM. Take `CCCCc1ccc(NC(=O)NCCCCN2CCN(c3csc4cc(F)ccc34)CC2)cc1` [compound 814937]: the Ki in assay [1] was 532 nM.

In the case of `Cc1ccc(NC(=O)NCCCCN2CCN(c3csc4cc(F)ccc34)CC2)cc1` [compound 814941], the Ki in assay [1] was 13.5 nM.

Regarding `O=C(NCCCCN1CCN(c2csc3cc(F)ccc23)CC1)NC1CCCCC1` [compound 814945], the Ki in assay [1] turned out to be 4.5 nM. Consider `O=C(NCCCCN1CCN(c2csc3cc(F)ccc23)CC1)Nc1ccc(Br)cc1` [compound 814949], for which, in assay [1], the Ki stood at 18.2 nM. Still for that read-out and setting: the value for `O=C(NCCCCN1CCN(c2csc3cc(F)ccc23)CC1)Nc1ccc(C(F)(F)F)cc1` [compound 814952] was 44.8 nM; that for `O=C(NCCCCN1CCN(c2csc3cc(F)ccc23)CC1)Nc1cccc(F)c1` [compound 814953] was 3.5 nM. In the case of `CC(=O)c1ccc(NC(=O)NCCCCN2CCN(c3csc4cc(C(F)(F)F)ccc34)CC2)cc1` [compound 815993], the Ki in assay [1] came to 74.9 nM; in assay [2], 2.26 nM. For `COc1ccc(NC(=O)NCCCCN2CCN(c3csc4cc(C(F)(F)F)ccc34)CC2)cc1` [compound 815994], the “halpha1 % I” value in assay [1] (@1 μM) is given as 11.9& Inh @1 μM % Inh. Further, the Ki in assay [1] amounted to 1220 nM; in assay [2], 8.87 nM. On to `CCCOc1ccc(NC(=O)NCCCCN2CCN(c3csc4cc(C(F)(F)F)ccc34)CC2)cc1` [compound 815995], for which the “halpha1 % I” value in assay [1] (@10 μM) was found to be 42.4% Inh @10 μM. Moreover, the Ki in assay [2] stood at 17.5 nM. For `Cc1ccc(NC(=O)NCCCCN2CCN(c3csc4cc(C(F)(F)F)ccc34)CC2)cc1` [compound 815997], in assay [1] (@1 μM), the “halpha1 % I” value was 23.5% Inh @1 μM. The Ki was 936 nM in assay [1] and 4.5 nM in assay [2].

In the case of `O=C(NCCCCN1CCN(c2csc3cc(C(F)(F)F)ccc23)CC1)Nc1ccc(Br)cc1` [compound 816000], the figures for the Ki in assay [1] and in assay [2] were 234 nM and 6.31 nM, respectively.

With `O=C(NCCCCN1CCN(c2csc3cc(C(F)(F)F)ccc23)CC1)NC1CCCCC1` [compound 816001], the Ki came to 83.6 nM in assay [1] and 4.68 nM in assay [2]. In the case of `O=C(NCCCCN1CCN(c2csc3cc(C(F)(F)F)ccc23)CC1)Nc1ccc(C(F)(F)F)cc1` [compound 816002], the “halpha1 % I” value in assay [1] (@1 μM) was determined as 30.2% Inh @1 μM. Moreover, the Ki in assay [1] stood at 435 nM; in assay [2], 12.5 nM. Consider `O=C(NCCCCN1CCN(c2csc3cc(C(F)(F)F)ccc23)CC1)Nc1cccc(F)c1` [compound 816003], for which the figures for the Ki in assay [1] and in assay [2] were 56.7 nM and 1.58 nM, respectively. For the compound `O=C(NCCCCN1CCN(c2csc3cc(C(F)(F)F)ccc23)CC1)Nc1ccccc1` [compound 816005], the Ki in assay [1] worked out at 56.8 nM; in assay [2] it was 2.54 nM.
